pIC50: −log10 of the molar value. Each block holds one molecule with its values, some of them ahead of it.
Experiments:
[1] = molecular target: T1, Amine oxidase [flavin-containing] B (Homo sapiens, UniProt P27338); experiment: Inhibition of human MAO-B
T1 sequence (P27338 whole entry): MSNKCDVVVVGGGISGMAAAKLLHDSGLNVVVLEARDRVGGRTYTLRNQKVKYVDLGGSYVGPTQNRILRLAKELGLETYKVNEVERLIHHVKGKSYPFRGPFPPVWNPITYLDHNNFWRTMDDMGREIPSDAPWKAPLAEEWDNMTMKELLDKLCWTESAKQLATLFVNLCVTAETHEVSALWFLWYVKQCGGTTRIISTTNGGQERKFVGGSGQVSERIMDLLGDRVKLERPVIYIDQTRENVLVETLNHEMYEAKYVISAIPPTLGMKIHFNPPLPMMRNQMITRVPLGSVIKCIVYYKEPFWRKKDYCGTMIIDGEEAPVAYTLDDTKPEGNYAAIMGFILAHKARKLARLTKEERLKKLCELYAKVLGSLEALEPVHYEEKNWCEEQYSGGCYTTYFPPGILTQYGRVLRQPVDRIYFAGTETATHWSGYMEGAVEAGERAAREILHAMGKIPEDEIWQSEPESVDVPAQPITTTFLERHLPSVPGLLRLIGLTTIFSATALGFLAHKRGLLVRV

[2] = molecular target: T1, Amine oxidase [flavin-containing] B; experiment: Inhibition of human MAO-B using benzylamine as substrate
[3] = molecular target: T1, Amine oxidase [flavin-containing] B; experiment: Inhibition of human MAO-B using kynuramine as substrate incubated for 20 mins by fluorescence based assay
[4] = molecular target: T1, Amine oxidase [flavin-containing] B; experiment: Inhibition of human MAO-B by fluorescence spectrophotometry assay
[5] = organism: Homo sapiens; experiment: Selectivity index, ratio of IC50 for human MAO-A to IC50 for human MAO-B
[6] = molecular target: T1, Amine oxidase [flavin-containing] B; experiment: Inhibition of human MAO-B using kynuramine as substrate incubated for 20 mins by fluorescence spectrophotometry assay
[7] = molecular target: T1, Amine oxidase [flavin-containing] B; experiment: Inhibition of human MAO-B at 50 uM using benzylamine as substrate incubated for 30 mins by absorbance based analysis relative to control; details: 0.5 h

- pIC50 [1]: > 7.00
SMILES: O=C(/C=C/c1cccc2c1OCO2)c1ccc(Br)cc1

- pIC50 [2]: < 5.00
SMILES: O=C(/C=C/c1cccc(F)c1)c1ccc(-n2ccnc2)cc1

- pIC50 [3]: 8.59
SMILES: COc1ccc2c(c1)O/C(=C\c1cc3ccccc3[nH]1)C2=O

- pIC50 [2]: > 7.00
SMILES: COc1ccc(C(=O)/C=C/c2ccc(ON=C(c3ccccc3)c3ccccc3)cc2)cc1

- pIC50 [3]: > 6.30
SMILES: COc1ccc2c(c1)C/C(=C\c1cccnc1)C2=O

- pIC50 [4]: 4.48
SMILES: Cc1ccc(C(=O)NCc2cn(Cc3ccc4oc(-c5ccc(Cl)cc5)cc(=O)c4c3)nn2)cc1

- pIC50 [4]: 4.48
SMILES: Cc1ccc(NC(=O)CCCCc2cn(Cc3ccc4oc(-c5ccc(Cl)cc5)cc(=O)c4c3)nn2)cc1

SMILES: CCOc1ccc(C(=O)/C=C/c2ccc(F)cc2)cc1
- pIC50 [2]: 7.28
- Ratio IC50 [5]: 87.4

- pIC50 [6]: 8.19
SMILES: O=C1/C(=C/c2ccc(Cl)c(Cl)c2)CCc2ccc(O)cc21

- pIC50 [2]: < 5.00
SMILES: O=C(/C=C/c1ccc(F)cc1)c1ccc(-n2ccnc2)cc1

- pIC50 [2]: < 6.70
SMILES: COc1ccc(C(=O)/C=C/c2ccc(O/N=C(\C)c3ccc(OC)cc3)cc2)cc1

- pIC50 [6]: 6.94
SMILES: O=C1/C(=C/c2ccccc2)CCc2ccccc21

- pIC50 [4]: 4.48
SMILES: O=C(CCCCc1cn(Cc2ccc3oc(-c4ccc(Cl)cc4)cc(=O)c3c2)nn1)Nc1ccc(F)cc1

- pIC50 [2]: > 7.30
SMILES: O=C(/C=C/c1ccc(ON=C2CCCCC2)cc1)c1ccc(F)cc1

- pIC50 [4]: 4.48
SMILES: Cc1ccc(NC(=O)CCc2cn(Cc3ccc4oc(-c5ccc(Cl)cc5)cc(=O)c4c3)nn2)cc1

- pIC50 [1]: > 7.00
SMILES: O=C(/C=C/c1cccc2c1OCO2)c1ccc(Cl)cc1

- pIC50 [2]: 6.68
SMILES: CCOc1ccc(C(=O)/C=C/c2ccc(C(F)(F)F)cc2)cc1

- pIC50 [2]: < 5.00
SMILES: O=C(/C=C/c1ccc(C(F)(F)F)cc1)c1ccc(-n2ccnc2)cc1

- inhibition at 50 µM [7]: < 75%
SMILES: CCN(CC)C(=O)Oc1ccc2c(c1)O/C(=C\c1ccc(N(CC)CC)cc1)C2=O

- pIC50 [3]: > 6.30
SMILES: COc1ccc2c(c1)C/C(=C\c1ccccn1)C2=O

- pIC50 [2]: 6.68
SMILES: CCOc1ccc(C(=O)/C=C/c2ccc(N(C)C)cc2)cc1

- pIC50 [2]: < 5.00
SMILES: O=C(/C=C/c1ccccc1F)c1ccc(-n2ccnc2)cc1

- pIC50 [2]: > 7.00
SMILES: COc1ccc(C(=O)/C=C/c2ccc(O/N=C3\CCc4ccccc43)cc2)cc1

- pIC50 [2]: 6.49
- Ratio IC50 [5]: 3.3
SMILES: O=C(/C=C/c1ccc(Br)cc1)c1ccc(-n2ccnc2)cc1

- pIC50 [1]: > 7.00
SMILES: O=C(/C=C/c1cccc2c1OCO2)c1cccc(Br)c1

- pIC50 [3]: 6.57
- Ratio IC50 [5]: > 300
SMILES: COc1ccc2c(=O)cc(-n3cnc4ccccc43)oc2c1

- pIC50 [3]: 7.41
SMILES: O=C1/C(=C/c2cc3ccccc3[nH]2)Oc2ccccc21

- pIC50 [6]: 6.05
- Ratio IC50 [5]: 89
SMILES: O=C1/C(=C/c2ccc(Cl)cc2)CSc2ccccc21

- pIC50 [3]: > 6.30
SMILES: O=C1/C(=C/c2cccnc2)Cc2ccccc21

- pIC50 [3]: < 6.00
SMILES: O=C1/C(=C/c2ccccn2)Cc2ccccc21

- pIC50 [2]: 6.68
SMILES: CCOc1ccc(C(=O)/C=C/c2ccc(CC)cc2)cc1

- pIC50 [2]: 6.68
SMILES: CCOc1ccc(C(=O)/C=C/c2ccc(OC)cc2)cc1

- pIC50 [3]: > 7.00
- Ratio IC50 [5]: > 1000
SMILES: O=C(/C=C/c1ccc(F)cc1)c1ccc2c(c1)OCCO2

- pIC50 [2]: 6.68
SMILES: CCOc1ccc(C(=O)/C=C/c2ccc(C)cc2)cc1

- pIC50 [4]: 4.48
SMILES: O=C(CCc1cn(Cc2ccc3oc(-c4ccc(Cl)cc4)cc(=O)c3c2)nn1)Nc1ccccc1

- pIC50 [2]: 6.49
- Ratio IC50 [5]: 3.3
SMILES: Cc1ccc(/C=C/C(=O)c2ccc(-n3ccnc3)cc2)cc1

- pIC50 [3]: 6.11
SMILES: Cc1ccc2c(ccn2-c2cc(=O)c3ccccc3o2)c1

- pIC50 [4]: 4.81
SMILES: Cc1ccc(NC(=O)CCc2cn(Cc3ccc4oc(-c5ccccc5)cc(=O)c4c3)nn2)cc1

- pIC50 [2]: 6.68
SMILES: CCOc1ccc(C(=O)/C=C/c2ccc(Cl)cc2)cc1

- pIC50 [2]: < 6.70
SMILES: COc1ccc(C(=O)/C=C/c2ccc(O/N=C(\C)c3ccccc3)cc2)cc1

- pIC50 [4]: 4.48
SMILES: O=C(NCc1cnnn1Cc1ccc2oc(-c3ccc(Cl)cc3)cc(=O)c2c1)c1ccccc1

SMILES: CCN(CC)C(=O)Oc1ccc2c(c1)O/C(=C\c1ccc(OCCN(C)C)cc1)C2=O
- inhibition at 50 µM [7]: < 75%
